A short description of data set [1]: Dilution in water of solutions of the ester(s) to normal agricultural tank-mix rates. The format is physicochemical. To be noted: solvents with >15% solubility; normal agricultural tank-mix rates (1:9-1:99).
Data set [2] is described as follows: Solubility of the isomeric mixture at room temperature in various solvents (Table I). It counts as physicochemical. An excerpt: |at Room Temperature in Various Solvents
Data set [3] is described as follows: Initial solubility and dissolution in water of 7.5 g of liquid concentrate compositions utilizing 1 molar equivalent of different acids (Table II). Particulars: solvents with greater than 20% by weight solubility; without addition of 0.2 to 1.0 molar equivalent of acids.

On to “isomeric mixture of 6-(5-isopropyl-5-methyl-4-oxo-2-imidazolin-2-yl)-m-toluic acid, methyl ester and 2-(5-isopropyl-5-methyl-4-oxo-2-imidazolin-2-yl)-p-toluic acid, methyl ester”, for which the “precipitate formation on dilution in water” value in data set [1] is listed as “unsprayable precipitates are formed”. Moreover, the “limited solubility by weight” value in data set [2] (in many of the solvents listed in Table I) was at most 15%. Also, the “% Solubility by Weight” value in data set [2] (solvent: 1-Formylpiperidine) is over 15%; in data set [2] (solvent: 1-propanol), over 15%; in data set [2] (solvent: Amyl acetate) it was 5%; in data set [2] (solvent: Amyl alcohol (mixed)) it was over 15%; in data set [2] (solvent: Anisole), 5%; in data set [2] (solvent: Aromatic 150) it was 5%. In addition, the “% Solubility by Weight” value is reported as over 15% in data set [2] (solvent: Chloroform); 5% in data set [2] (solvent: Diethyl succinate); over 15% in data set [2] (solvent: Dimethyl sulfoxide); over 15% in data set [2] (solvent: Dimethylformamide); over 15% in data set [2] (solvent: Methanol); over 15% in data set [2] (solvent: Methyl cellosolve). Further, the “% Solubility by Weight” value in data set [2] (solvent: Methyl oleate) is listed as 5%; in data set [2] (solvent: N-methylpyrrolidone) it was over 15%; in data set [2] (solvent: Oleic acid) it was 5%; in data set [2] (solvent: Penn Drake Oil (Kerosene)), 5%; in data set [2] (solvent: Propylene glycol), 5%; in data set [2] (solvent: Tenneco 500/1000), 5%. Moreover, the “% Solubility by Weight” value in data set [2] (solvent: Triethanolamine) and in data set [2] (solvent: Xylene) was 5% throughout. For the same substance, the “dissolution characteristics of the resulting concentrate” value in data set [3] is recorded as “not satisfactory”.

The record behind these values is US4871388A, “Herbicidal liquid concentrate compositions” (priority 1987, dated 1989).
